A melting point compilation (Tetko et al.; mined from patent text by program, amines drawn as free bases though some values may be those of a salt)

melting point [°C] | SMILES
80 to 81 | CCOC(=O)CNC(=O)c1c(Cl)c2cc(Oc3ccc(C(F)(F)F)cc3)ccc2n1-c1ccc(OC(C)C)cc1
83 to 84.5 | OC(CCCCCOc1ccccc1)c1cccc(OCc2ccc3ccccc3n2)c1 (stereo not given)
217 to 219 | Nc1ncccc1-c1nc2cc(-c3cccnc3)cnc2n1-c1ccc(CNS(=O)(=O)c2ccccc2)cc1
141 | Fc1ccccc1-c1nc(Cl)nc2ccccc12
99 to 109 | CN(CCC12CC3CC(CC(C3)C1)C2)C(=O)NCCCc1ccncc1
139 to 140 | CN(Cc1cc(C(F)(F)F)cc(C(F)(F)F)c1)C(=O)c1ncc2ccccc2c1-c1ccccc1
209 to 212 | Cn1cc(CO)c(=O)c2cc(F)ccc21
127 to 132 | CC(C)(C)c1ccc(C(=O)Nc2ccccc2C(=O)NCCc2ncc[nH]2)cc1
137 to 152 | O=C(c1cccc(-c2ccccc2)c1C(=O)C(Cl)(Cl)Cl)C(Cl)(Cl)Cl
196 to 199 | CCCCCCn1c(=O)n(C2OC(CO)C(O)C2O)c2nc(N)[nH]c(=O)c21 (stereo not given)
60 to 62 | C=CCOC(=O)[C@@H]1CC[C@@H]2CN1C(=O)N2OCc1ccccc1
210 to 212 | CCc1nc2c(N)nc3ccccc3c2n1CCCSC
117 to 119 | CN1C=C(S(=O)(=O)C(F)(F)F)C(Cl)(c2ccc(Cl)cc2)C1 (stereo not given)
83 | C=CC[C@@]1(NC(=O)OC(C)(C)C)C(=O)[C@@H](C(C)C)N(C(=O)OC(C)(C)C)C1=O
82 to 83 | Cn1nc(CO)nc1NCCCCOc1cccc(CN2CCCCC2)c1
102 to 103 | CCCn1c(C#N)c(Cl)n(-c2ccc(Cl)cc2)c1=O
210 | Oc1ccc(-c2ccc3ccc(O)cc3c2)cc1
98 to 100 | O=C(OCCOc1ccccc1)c1cccc(NC(=O)C(CS)Cc2ccccc2)c1 (stereo not given)
247 to 248 | O=C1CCC(=O)N1Cc1nc2sc3c(c2c(-c2ccc(OCc4ccccc4)cc2)c1Cl)CCNC3
224 to 225 | CNc1nc(OC)c(C(=O)O)cc1Br
118 | CNC(=S)NCc1cc(-c2ccccc2)no1
259 | CNC(=O)c1cc2c(nc(C)n2C)c2c1CCC(c1ccccc1)N2 (stereo not given)
126 to 129 | CC(C)(C)c1cnc(CSc2cnc(NC(=O)Cc3ccc(OCCCC(=O)Nc4ccccn4)cc3)s2)o1

melting point [°C] | SMILES
162 to 165 | O=C(Nc1ccc([N+](=O)[O-])cc1)C(=O)N1CCC(Cc2ccccc2)CC1
197 to 199 | Cc1nn(-c2cccnc2)c(-c2ccccc2)c1CC(=O)O
109 to 110 | CCCCOC(=O)c1ccc(-c2nc(C(Cl)(Cl)Cl)nc(C(Cl)(Cl)Cl)n2)cc1
112 to 113 | O=C(O)COc1ccc(SCc2cc(-c3ccc(C(F)(F)F)cc3)on2)c2c1CCCO2
82 to 83 | CCCCCCCCCCOc1cnc(-c2ccc(C#CCCCC(C)O)cc2)nc1 (stereo not given)
145 to 150 | Nc1nc2c(s1)CCN(CC=Cc1ccc(Cl)cc1)CC2
79 | CS(=O)(=O)Nc1ccc(C(=O)NC(=O)N2CCC(Oc3ccc(Cl)cc3)CC2)cc1
160 to 162 | COc1cc(OS(=O)(=O)c2ccc(N3CCN(C)C3=O)cc2)cc(OC)c1OC
214 to 217 | Nc1nc2ccc(C(=C(Cl)Cl)c3ccccc3)cc2n1N1C=CC=CS1
226 to 227 | CC1(C)Oc2ccc(C#N)cc2[C@@H](NC(=O)Nc2ccccc2)[C@@H]1O (relative stereo)
51 to 53 | CCOC(=O)c1ccc(I)cc1N
102 to 103 | O=C1NC(=O)C(Cc2ccc(SCc3ccccc3)cc2)S1 (stereo not given)
161 to 162 | O=C(O)CCc1cn(Cc2ccc(OCc3cncc(-c4ccccc4)c3)cc2)nc1-c1ccccc1
133 to 134 | CN(C)c1ccc(C(=O)N2CCN(CCc3ccc(Cl)cc3)CC2)cc1
231 to 234 | Cc1nc(N)c2nc(CO)n(CC(C)C)c2c1C
95 | CCOC(=O)C(C)Oc1ccc2c(-c3ccc(Cl)cc3)noc2c1 (stereo not given)
7.16 | CCCCCCCCOc1ccc(-c2ncc(Br)cn2)c(F)c1
78 to 80 | COc1cc2nc(CN(C)C)nc(Cl)c2cc1OC
60 to 63 | CCOC(=O)C(Cc1ccc(C(=O)C(C)(C)C)cc1)Cc1ccc(C(=O)C(C)(C)C)cc1
228 | Cn1c(=O)c(C#N)c(N2CCN(C(=O)c3ccco3)CC2)c2cc(Cl)ccc21
263 to 264 | NC(=O)c1ccc(-c2ccc(-c3ccc(C(F)(F)F)cc3)o2)cc1
85 to 87 | C=C(Br)CCC(=O)NC(C(=O)OCC)C(=O)OCC
182 to 183 | CCOC(=O)c1c(C)cc2c(c1C)c(=O)n(-c1ccccc1Cl)c(=O)n2C(=O)O

melting point [°C] | SMILES
191 to 192 | COc1cc(NC(=N)Nc2ccc3c4c(cccc24)CC3)cc2ccccc12
82 to 86 | CCCCCCCCCCCCCCCCCCOc1cc(OC(=O)C(c2ccccc2)c2ccccc2)cc(C(=O)O)c1
159 to 161 | CC1(Br)CS(=O)C2C(NC(=O)Cc3ccccc3)C(=O)N2C1C(=O)OCC(Cl)(Cl)Cl (stereo not given)
188 | OCc1ccc(Cn2c(CC3CCN(CCNc4ccc(Cl)nn4)CC3)nc3ccccc32)o1
242 to 243 | O=C1NCCNN1c1cc(Cl)c(Sc2ccc(Cl)cc2)c(Cl)c1
277 to 278 | Cc1ccc(N)cc1NC(=O)c1ccc(O)cc1
103 to 106 | CC(c1ccc(OCc2ccc(Cl)cc2Cl)cc1)n1ccnc1 (stereo not given)
296 to 298 | CC(C)(C)Nc1c(NCc2ccc(F)cc2)c(=O)c1=O
77.5 to 81 | Nc1c(Cl)cnc(OCCO)c1Cl
160 | CCOc1cccc(C)c1S(=O)(=O)NC(=O)n1nc(OCC)n(C)c1=O
165 to 167 | O=C(O)C(Cc1ccc2ccccc2c1)NC(=O)C(CS)C(F)(F)F (stereo not given)
232 to 235 | CCCNC(=O)C(C)=Cc1ccc2c(c1)c(Cc1ccc(C(=O)O)cc1OC)cn2CC(=O)N(C)C
79 to 81 | c1ccc(CNn2cnnc2-c2ccc(CN3CCCCCC3)s2)cc1
120 to 124 | CCOC(=O)C(C)(C)C(O)C(c1ccc(Cl)cc1)n1ccnc1 (stereo not given)
160 to 161 | CCCCCCCCCCS(=O)(=O)Nc1cc(C(=O)Nc2ccccc2)ccc1OC
190 to 191 | O=C(N[C@H](Cc1ccc(C(F)(F)F)cc1)[C@@H](O)c1ccccc1F)c1ccc(F)c2ccccc12 (racemic)
59 to 61 | CCOC(=O)c1c(C)nc2cc(C)ccn12
153 to 156 | Cc1ccc(-c2ccc(S(=O)(=O)Nc3onc(C)c3Br)cc2)cc1
218 to 219 | Cc1cc(C)c(-n2c(C)cc(C)c(C#N)c2=O)cc1N
57 to 59 | COc1ccc(Sc2ccncc2)c([N+](=O)[O-])c1
83 to 85 | C=CC(O)c1c(C(C)C)nc(C(C)C)c(CCCCC)c1-c1ccc(F)cc1 (stereo not given)

SMILES | melting point [°C]
O=C(Nc1cccc([N+](=O)[O-])c1)NC1N=C(c2ccccc2F)c2ccccc2N(CC(=O)N2CC3CCC(CC3)C2)C1=O (racemic) | 180 to 187
NCc1ccc(Br)nc1 | 57 to 58
CC12CC(C(F)F)C3C4CCC(=O)C=C4CCC3C1CCC2=O (stereo not given) | 149 to 151
